The values that follow come from ChEMBL document CHEMBL4270566, “New aziridine-based inhibitors of cathepsin L-like cysteine proteases with selectivity for the Leishmania cysteine protease LmCPB2.8” (Eur J Med Chem, 2018).

SMILES strings stand for the structures. Active and inactive are the calls of the source. The rule behind the calls is not given here.

Data set [1] has as its system Leishmania major. As to the kind of experiment: Antileishmanial activity against luciferase-fused Leishmania major amastigotes infected in BMDM after 24 hrs by luminescence assay. It counts as functional, organism-based.
The subject of data set [2] is Leishmania major. As to the kind of experiment: Antileishmanial activity against Leishmania major promastigotes. It counts as functional, organism-based.
For data set [3], the system named is J774. The experiment in a line: Cytotoxicity against mouse J774 cells. The class given is cell-based.
Data set [4] deals with T1, Falcipain 2 (Plasmodium falciparum) (UniProt Q9N6S8).
T1 sequence (whole entry): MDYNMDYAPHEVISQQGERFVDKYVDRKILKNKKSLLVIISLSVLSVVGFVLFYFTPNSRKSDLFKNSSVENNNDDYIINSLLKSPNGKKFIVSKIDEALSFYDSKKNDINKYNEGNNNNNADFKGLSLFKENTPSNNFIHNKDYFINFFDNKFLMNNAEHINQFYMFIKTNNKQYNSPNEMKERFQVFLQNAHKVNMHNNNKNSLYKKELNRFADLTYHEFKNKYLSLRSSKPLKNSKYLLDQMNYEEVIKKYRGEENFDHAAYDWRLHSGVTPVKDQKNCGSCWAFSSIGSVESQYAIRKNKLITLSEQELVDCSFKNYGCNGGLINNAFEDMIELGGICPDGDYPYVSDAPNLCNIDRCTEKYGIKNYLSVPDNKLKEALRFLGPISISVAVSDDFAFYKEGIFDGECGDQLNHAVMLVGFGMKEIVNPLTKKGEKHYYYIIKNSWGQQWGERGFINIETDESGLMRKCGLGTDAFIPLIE
The experiment in a line: Inhibition of Plasmodium falciparum falcipain 2 at 20 uM using Z-Phe-Arg-AMC as substrate by fluorometric assay relative to control.

Data set [5] has as its target T2, Cathepsin B (Homo sapiens, UniProt P07858). The experiment in a line: Inhibition of human cathepsin-B at 20 uM using Z-Phe-Arg-AMC as substrate by fluorometric assay relative to control.
The target in data set [6] is T3, Cathepsin B-like protease (Leishmania major, UniProt P90627).
T3 sequence (P90627 whole entry): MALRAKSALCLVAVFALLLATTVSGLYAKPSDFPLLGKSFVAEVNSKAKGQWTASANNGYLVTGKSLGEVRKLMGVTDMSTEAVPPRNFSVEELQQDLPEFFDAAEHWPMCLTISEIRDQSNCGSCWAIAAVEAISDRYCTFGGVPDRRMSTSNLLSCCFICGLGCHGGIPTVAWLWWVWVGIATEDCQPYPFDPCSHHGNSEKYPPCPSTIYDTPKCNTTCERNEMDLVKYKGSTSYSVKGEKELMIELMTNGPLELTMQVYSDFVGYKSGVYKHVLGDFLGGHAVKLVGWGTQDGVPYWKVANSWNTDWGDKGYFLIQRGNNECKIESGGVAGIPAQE
As to the kind of experiment: Inhibition of Leishmania major MHOM/IL/81/FE/BNI His6-tagged CPC expressed in Pichia pastoris using Cbz-Phe-Arg-AMC as substrate by fluorescence spectrometric method. The conditions noted are these: read-out: Ki(app).

For data set [7], the target named is Cruzipain (Trypanosoma cruzi) (UniProt P25779). The experiment in a line: Inhibition of Trypanosoma cruzi cruzain at 20 uM using Z-Phe-Arg-AMC as substrate by fluorometric assay relative to control.
Data set [8] concerns the target T4, Procathepsin L (Homo sapiens, UniProt P07711). As to the kind of experiment: Inhibition of human cathepsin-L at 20 uM using Z-Phe-Arg-AMC as substrate by fluorometric assay relative to control.
Target sequence in this assay (P07711 114-333 limits assumed): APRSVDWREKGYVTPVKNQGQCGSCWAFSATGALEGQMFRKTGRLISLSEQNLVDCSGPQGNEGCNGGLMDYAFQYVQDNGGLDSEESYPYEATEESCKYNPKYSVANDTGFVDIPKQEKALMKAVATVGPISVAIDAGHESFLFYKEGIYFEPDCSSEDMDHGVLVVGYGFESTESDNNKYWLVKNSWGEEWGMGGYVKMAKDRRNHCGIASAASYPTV
The nature of data set [9]: Inhibition of Leishmania mexicana cathepsin L-like protease CPB2.8 using Z-Phe-Arg-AMC as substrate by fluorometric assay.
The target of data set [10] is Rhodesain (Trypanosoma brucei rhodesiense, UniProt Q95PM0). As to the kind of experiment: Inhibition of Trypanosoma brucei rhodesiense rhodesain using Z-Phe-Arg-AMC as substrate by fluorometric assay.
For data set [11], the target named is T2, Cathepsin B. As to the kind of experiment: Inhibition of human cathepsin-B using Z-Phe-Arg-AMC as substrate by fluorometric assay.
Data set [12] addresses T5, Falcipain 2 (Plasmodium falciparum, UniProt Q9N6S8).
T5 sequence (Q9N6S8 whole entry): T1 sequence (whole entry)
As to the kind of experiment: Inhibition of Plasmodium falciparum falcipain 2 using Z-Phe-Arg-AMC as substrate by fluorometric assay.

Data set [13] deals with Leishmania major. The experiment in a line: Antileishmanial activity against Leishmania major promastigotes at 20 uM. The class given is functional, organism-based.
The target in data set [14] is T4, Procathepsin L. The experiment in a line: Inhibition of human cathepsin-L using Z-Phe-Arg-AMC as substrate by fluorometric assay.
Target sequence in this assay (P07711 whole entry): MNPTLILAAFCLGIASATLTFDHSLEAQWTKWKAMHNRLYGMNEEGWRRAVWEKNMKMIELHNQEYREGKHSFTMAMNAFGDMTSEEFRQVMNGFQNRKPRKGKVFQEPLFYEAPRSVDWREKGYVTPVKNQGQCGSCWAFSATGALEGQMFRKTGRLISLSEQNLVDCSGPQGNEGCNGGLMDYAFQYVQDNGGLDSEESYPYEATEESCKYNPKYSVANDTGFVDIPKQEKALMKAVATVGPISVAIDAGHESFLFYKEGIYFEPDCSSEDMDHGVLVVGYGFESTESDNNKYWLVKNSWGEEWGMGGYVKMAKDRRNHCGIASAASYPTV
Data set [15] concerns Leishmania mexicana. The experiment in a line: Inhibition of Leishmania mexicana cathepsin L-like protease CPB2.8 at 20 uM using Z-Phe-Arg-AMC as substrate by fluorometric assay relative to control.
Data set [16] concerns the target Rhodesain (Trypanosoma brucei rhodesiense) (UniProt Q95PM0). As to the kind of experiment: Inhibition of Trypanosoma brucei rhodesiense rhodesain at 20 uM using Z-Phe-Arg-AMC as substrate by fluorometric assay relative to control.
Data set [17] shares this target. As to the kind of experiment: Inhibition of Trypanosoma brucei rhodesiense rhodesain assessed as second order inactivation rate constant using Z-Phe-Arg-AMC as substrate by fluorometric assay.
Data set [18] deals with T1, Falcipain 2 (Plasmodium falciparum). The experiment in a line: Inhibition of Plasmodium falciparum falcipain 2 assessed as second order inactivation rate constant using Z-Phe-Arg-AMC as substrate by fluorometric assay.
Data set [19] relates to Leishmania mexicana. The experiment in a line: Inhibition of Leishmania mexicana cathepsin L-like protease CPB2.8 assessed as second order inactivation rate constant using Z-Phe-Arg-AMC as substrate by fluorometric assay.
Data set [20] has as its target T4, Procathepsin L. As to the kind of experiment: Inhibition of human cathepsin-L assessed as second order inactivation rate constant using Z-Phe-Arg-AMC as substrate by fluorometric assay.
Target sequence in this assay (P07711 114-333 limits assumed): as the sequence (P07711 114-333 limits assumed) above
Data set [21] has as its target Cruzipain (Trypanosoma cruzi, UniProt P25779). The experiment in a line: Inhibition of Trypanosoma cruzi cruzain using Z-Phe-Arg-AMC as substrate by fluorometric assay.
Data set [22] addresses Cruzipain (Trypanosoma cruzi) (UniProt P25779). The experiment in a line: Inhibition of Trypanosoma cruzi cruzain assessed as second order inactivation rate constant using Z-Phe-Arg-AMC as substrate by fluorometric assay.

Sequence of Rhodesain (Trypanosoma brucei rhodesiense) (Q95PM0 1-450): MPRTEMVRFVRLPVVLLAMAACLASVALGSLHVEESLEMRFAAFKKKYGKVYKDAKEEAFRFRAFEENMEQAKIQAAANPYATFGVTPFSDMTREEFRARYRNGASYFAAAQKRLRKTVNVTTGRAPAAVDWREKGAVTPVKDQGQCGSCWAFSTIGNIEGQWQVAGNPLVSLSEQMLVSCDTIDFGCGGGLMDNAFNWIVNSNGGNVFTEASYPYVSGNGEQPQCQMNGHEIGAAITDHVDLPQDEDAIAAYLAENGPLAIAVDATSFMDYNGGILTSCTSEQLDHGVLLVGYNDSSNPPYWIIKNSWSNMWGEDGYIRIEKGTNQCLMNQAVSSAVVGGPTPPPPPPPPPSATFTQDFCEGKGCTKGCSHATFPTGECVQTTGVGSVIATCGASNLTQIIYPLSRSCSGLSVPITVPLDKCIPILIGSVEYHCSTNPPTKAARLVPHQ
Sequence of Rhodesain (Q95PM0 whole entry): as the sequence (Q95PM0 1-450) above
Sequence of Cruzipain (Trypanosoma cruzi) (P25779 123-467 limits assumed): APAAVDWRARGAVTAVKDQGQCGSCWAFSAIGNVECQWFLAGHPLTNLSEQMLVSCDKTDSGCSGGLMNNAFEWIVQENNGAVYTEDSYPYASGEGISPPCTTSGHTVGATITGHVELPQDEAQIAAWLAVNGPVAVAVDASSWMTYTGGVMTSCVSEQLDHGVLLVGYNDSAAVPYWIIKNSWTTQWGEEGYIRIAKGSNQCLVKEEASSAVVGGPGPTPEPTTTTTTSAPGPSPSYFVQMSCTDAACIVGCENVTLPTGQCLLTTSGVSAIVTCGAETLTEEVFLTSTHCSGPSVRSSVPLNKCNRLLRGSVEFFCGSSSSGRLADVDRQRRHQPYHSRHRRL
Sequence of Cruzipain (P25779 whole entry): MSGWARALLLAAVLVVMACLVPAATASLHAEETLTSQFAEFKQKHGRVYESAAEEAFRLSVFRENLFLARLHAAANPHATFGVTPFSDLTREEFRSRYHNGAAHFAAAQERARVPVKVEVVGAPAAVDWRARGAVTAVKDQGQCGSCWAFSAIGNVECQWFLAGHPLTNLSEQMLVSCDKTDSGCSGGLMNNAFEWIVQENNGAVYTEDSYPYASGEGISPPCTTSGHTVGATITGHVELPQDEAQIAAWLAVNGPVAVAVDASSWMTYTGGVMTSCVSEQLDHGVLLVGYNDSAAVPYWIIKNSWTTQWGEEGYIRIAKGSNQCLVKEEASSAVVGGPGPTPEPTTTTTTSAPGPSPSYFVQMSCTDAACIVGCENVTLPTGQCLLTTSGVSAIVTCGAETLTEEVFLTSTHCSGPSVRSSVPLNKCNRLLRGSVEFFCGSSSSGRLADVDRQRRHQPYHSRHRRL

On to `CC(C)[C@H](NC(=O)OC(C)(C)C)C(=O)N1CCC[C@@H]1C(=O)N1[C@@H](C(=O)OCc2ccccc2)[C@@H]1C(=O)OCc1ccccc1`, for which the values for the EC50 in [1] and in data set [2] were 2200 nM and 34800 nM, respectively. Further, the Activity in data set [3] is over 250 µM.
For the molecule `CC(C)C[C@H](NC(=O)OC(C)(C)C)C(=O)N1CCC[C@@H]1C(=O)N1[C@@H](C(=O)OCc2ccccc2)[C@@H]1C(=O)OCc1ccccc1`, the inhibition entry in data set [4], in data set [5], in [7] and in data set [8] was “inactive” throughout. Moreover, the Ki in data set [6] stood at 18200 nM; in data set [9], 3800 nM; in [10], 1700 nM. Besides, the values for the EC50 in [1] and in [2] were 2300 nM and 37400 nM, respectively. This molecule also came in with an Activity in [3] of over 250 µM.
With `CC(C)C[C@H](NC(=O)OC(C)(C)C)C(=O)N1CCC[C@H]1C(=O)N1[C@@H](C(=O)OCc2ccccc2)[C@@H]1C(=O)OCc1ccccc1`, the Ki in data set [11] was determined as 114000 nM; in data set [12], 400 nM; in data set [14], 400 nM. Moreover, the outcome in [13] was inactive.
Take `CC(C)C[C@H](NC(=O)OC(C)(C)C)C(=O)N1CCC[C@@H]1C(=O)N1C(C(=O)O)C1C(=O)OCCc1ccccc1` (mixture of isomers): the inhibition (in general, the drop in the measured response relative to a control, in per cent) in [4] is over 50%; in data set [15], over 50%; in data set [7] it was under 50%; in data set [8] it was under 50%; in data set [16], over 50%. Moreover, the inhibition result in data set [5] was “inactive”. For the same molecule, the Ki in data set [12] is 1260 nM; in data set [9], 440 nM; in [10], 160 nM. Further, the K amounted to 2970 M⁻¹ s⁻¹ in data set [17], 185 M⁻¹ s⁻¹ in [18] and 3180 M⁻¹ s⁻¹ in [19].
Consider `CC(C)C[C@H](NC(=O)OC(C)(C)C)C(=O)N1CCC[C@@H]1C(=O)N1C(C(=O)O)C1C(=O)OCC1CCCCC1` (mixture of isomers), for which the inhibition in data set [4], in data set [15], in data set [7], in data set [8] and in [16] was over 50% in each case. The K in data set [20] was 232 M⁻¹ s⁻¹; in data set [22] it was 5380 M⁻¹ s⁻¹; in [17], 8230 M⁻¹ s⁻¹; in data set [18] it was 1280 M⁻¹ s⁻¹; in data set [19], 893 M⁻¹ s⁻¹. Besides, the inhibition entry in data set [5] was “inactive”. Further, the Ki in data set [12] is 450 nM; in data set [21], 710 nM; in data set [9], 1790 nM; in [14], 7300 nM; in data set [10], 120 nM.
